# Measured values as given in patent US20250280861A1, “SWEETENER COMPOSITIONS” (Firmenich Incorporated, priority 2022, published 2025).
# Target: T1, hT1R2/T1R3 taste receptor (Homo sapiens, UniProt Q7RTX0+Q8TE23)
# T1 sequence (Q8TE23 20-839): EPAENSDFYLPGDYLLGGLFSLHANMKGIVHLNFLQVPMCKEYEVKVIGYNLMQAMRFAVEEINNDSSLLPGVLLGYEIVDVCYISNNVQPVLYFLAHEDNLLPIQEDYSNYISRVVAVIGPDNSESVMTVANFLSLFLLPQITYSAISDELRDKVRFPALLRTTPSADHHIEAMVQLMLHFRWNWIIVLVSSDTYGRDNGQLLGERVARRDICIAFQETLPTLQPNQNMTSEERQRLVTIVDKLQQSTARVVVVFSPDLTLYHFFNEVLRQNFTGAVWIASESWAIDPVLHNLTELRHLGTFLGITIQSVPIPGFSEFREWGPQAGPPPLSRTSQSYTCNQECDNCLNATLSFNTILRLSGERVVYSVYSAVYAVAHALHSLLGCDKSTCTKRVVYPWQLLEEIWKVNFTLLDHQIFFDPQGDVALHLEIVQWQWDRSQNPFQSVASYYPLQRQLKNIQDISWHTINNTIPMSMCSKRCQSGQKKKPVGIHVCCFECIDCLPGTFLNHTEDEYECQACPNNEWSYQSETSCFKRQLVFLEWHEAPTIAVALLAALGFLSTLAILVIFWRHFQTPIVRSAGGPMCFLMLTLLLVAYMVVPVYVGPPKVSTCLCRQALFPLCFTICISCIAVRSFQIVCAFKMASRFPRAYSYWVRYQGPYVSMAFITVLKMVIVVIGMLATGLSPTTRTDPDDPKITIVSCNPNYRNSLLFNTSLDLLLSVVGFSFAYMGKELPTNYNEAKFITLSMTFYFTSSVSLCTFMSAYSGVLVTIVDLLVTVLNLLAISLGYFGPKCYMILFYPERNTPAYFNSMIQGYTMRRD
# T1 sequence (Q7RTX0 21-852): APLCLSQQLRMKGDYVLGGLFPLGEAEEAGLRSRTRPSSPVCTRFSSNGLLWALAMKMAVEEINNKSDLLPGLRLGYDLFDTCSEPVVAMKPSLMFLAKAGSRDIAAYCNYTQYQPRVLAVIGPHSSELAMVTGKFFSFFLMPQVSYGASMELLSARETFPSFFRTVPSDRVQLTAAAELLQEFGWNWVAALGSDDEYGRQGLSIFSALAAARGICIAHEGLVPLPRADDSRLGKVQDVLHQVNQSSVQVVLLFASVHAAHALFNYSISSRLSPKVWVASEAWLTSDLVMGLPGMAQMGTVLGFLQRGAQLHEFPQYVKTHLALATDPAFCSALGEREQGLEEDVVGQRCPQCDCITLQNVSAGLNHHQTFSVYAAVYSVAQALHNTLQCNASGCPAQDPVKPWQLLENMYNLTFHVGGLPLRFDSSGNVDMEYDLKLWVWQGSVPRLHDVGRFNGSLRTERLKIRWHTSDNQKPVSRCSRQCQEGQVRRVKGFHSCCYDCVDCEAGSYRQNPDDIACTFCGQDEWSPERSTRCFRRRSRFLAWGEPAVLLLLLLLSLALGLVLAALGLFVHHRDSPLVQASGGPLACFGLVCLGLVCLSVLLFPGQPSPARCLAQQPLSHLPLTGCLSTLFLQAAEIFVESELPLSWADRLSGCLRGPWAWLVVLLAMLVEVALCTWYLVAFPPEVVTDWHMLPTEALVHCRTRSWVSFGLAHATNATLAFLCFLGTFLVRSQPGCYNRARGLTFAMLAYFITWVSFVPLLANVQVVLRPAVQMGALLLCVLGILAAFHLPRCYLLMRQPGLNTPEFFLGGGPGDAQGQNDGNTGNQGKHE
# Assay: agonist activity against the hT1R2/T1R3 taste receptor (sweet receptor based assay)
# Assay type: cell-based
# Details: not given
# Experimental: Compounds described in this application show moderate to potent agonist effect on the sweet receptor based assay. Potencies (EC50 values, e.g. see Tables 1-3) for agonist activity were measured against the hT1R2/T1R3 taste receptor. FIG. 1 exemplifies the data generated during the screening to determine EC50 values.
row,Compound,EC50 [µM]
1,CC(C)(C)NC(=O)C(C)(C)N1CCC(C#N)(c2cccc(F)c2F)CC1 [Compound 126],2
2,COCC1(c2ccccc2)CCN(C(C)(C)C(=O)NCC(C)C)CC1 [Compound 120],> 10
3,CC(C)(C(=O)NC1CC1)N1CCC(C#N)(c2cccc(F)c2F)CC1 [Compound 128],1.7
4,CC(C)CNC(=O)C(C)(C)N1CCC(C#N)(c2ccccc2)CC1 [Compound 124],2.2

# Same assay, conditions: agonist activity, hT1R2/T1R3; read-out: Sweet EC50
row,Compound,EC50 [µM]
1,Cc1cccc(N2CCN(C(C)(C)C(=O)NCCc3ccccc3)CC2)c1C [Compound 27],> 10
2,CC(C)CNC(=O)C(C)(C)N1CCC(CO)(c2ccccc2)CC1 [Compound 119],> 10
3,CC(C)CNC(=O)C(C)(C)N1CCC(O)(c2ccccc2)CC1 [Compound 123],> 10
4,CCNC(=O)C(C)(C)N1CCN(c2cccc(C)c2C)CC1 [Compound 8],> 10
5,CC(C)CNC(=O)C(C)(C)N1CC=C(c2ccccc2)CC1 [Compound 56],3.3
6,CC(C)CNC(=O)C(C)(C)N1CCN(c2ccccn2)CC1 [Compound 53],> 10
7,"CC(C)CNC(=O)C(C)(C)N1CCC(c2ccccc2)CC1 [Compound 80, N-isobutyl-2-methyl-2-(4-phenylpiperidin-1-yl)propanamide]",0.7
8,Cc1cccc(N2CCN(C(C)(C)C(=O)NCC(C)C)CC2)c1 [Compound 43],> 10
9,Cc1ccncc1C1=CCN(C(C)(C)C(=O)NCC(C)C)CC1 [Compound 75],> 10
10,Cc1ncccc1C1=CCN(C(C)(C)C(=O)NCC(C)C)CC1 [Compound 76],> 10
11,CC(C)CNC(=O)C(C)(C)N1CCC(c2ccccc2F)CC1 [Compound 91],0.4
12,CC(C)CNC(=O)C(C)(C)N1CCC(C)(c2ccccc2)CC1 [Compound 118],3.7
13,CCC(CC)NC(=O)C(C)(C)N1CCN(c2cccc(C)c2C)CC1 [Compound 20],5.6
14,Cc1cccc(N2CCN(C(C)C(=O)NCC(C)C)CC2)c1C (stereo not drawn) [Compound 29],1.4
15,CC(C)CNC(=O)C(C)(C)N1CC=C(c2cccc(C(=O)N(C)C)c2)CC1 [Compound 74],> 10
16,COCc1cccc(C2=CCN(C(C)(C)C(=O)NCC(C)C)CC2)c1F [Compound 60],1.2
17,Cc1cccc(N2CCN(C(C)(C)C(=O)NCC(C)C)CC2)c1C [Compound 10],2.8
18,COCC(C(=O)NCC(C)C)N1CCC(c2ccccc2)CC1 (stereo not drawn) [Compound 113],4.4
19,Cc1cccc(N2CCN(C(C)C(=O)NCC(C)C)CC2)c1C (stereo not drawn) [Compound 11],1.4
20,CC(C)CNC(=O)C(C)(C)N1CCC(c2ccc(F)cc2)CC1 [Compound 97],6.2

row,Compound,EC50 [µM]
1,Cc1cccnc1N1CCN(C(C)(C)C(=O)NCC(C)C)CC1 [Compound 41],> 10
2,CC(C)CNC(=O)C(C)(C)N1CCC(c2cccc3c2OCO3)CC1 [Compound 104],1.7
3,Cc1cccc(C2=CCN(C(C)(C)C(=O)NCC(C)C)CC2)n1 [Compound 77],> 10
4,Cc1cccc(C2CCN(C(C)(C)C(=O)NCC(C)C)CC2)n1 [Compound 109],5.1
5,"CC(C)CNC(=O)C(C)(C)N1CCN(c2ccccc2F)CC1 [Compound 2, 2-(4-(2-fluorophenyl)piperazin-1-yl)-N-isobutyl-2-methylpropanamide]",6.8
6,CC(C)CNC(=O)C(C)(C)N1CC=C(c2cccc(F)c2F)CC1 [Compound 59],1.7
7,CC(C)(C(=O)NC1CC1)N1CCN(c2cccc(F)c2F)CC1 [Compound 33],3.9
8,CC(C)CNC(=O)C(C)(C)N1CCC(c2cccc(F)c2)CC1 [Compound 96],0.6
9,CC(C)CNC(=O)C(C)(C)N1CC=C(c2cccc(CO)c2F)CC1 [Compound 66],> 10
10,COCc1c(F)cccc1C1=CCN(C(C)(C)C(=O)NCC(C)C)CC1 [Compound 61],6.5
11,COCc1ccc(C2CCN(C(C)(C)C(=O)NCC(C)C)CC2)c(F)c1 [Compound 102],> 10
12,Cc1cccc(N2CCN(C(C)(C)C(=O)NCC(C)(C)C)CC2)c1C [Compound 18],> 10
13,COCCNC(=O)C(C)(C)N1CCN(c2cccc(C)c2C)CC1 [Compound 22],> 10
14,CC(C)CNC(=O)C(C)(C)N1CC=C(c2ccccc2N(C)C)CC1 [Compound 67],> 10
15,CC(C)CNC(=O)C(C)(C)N1CC=C(c2ccccc2F)CC1 [Compound 57],1.6
16,Cc1ccc(C)c(N2CCN(C(C)(C)C(=O)NCC(C)C)CC2)c1 [Compound 38],> 10
17,CC(C)CNC(=O)C(C)N1CCC(c2ccccc2)CC1 (stereo not drawn) [Compound 90],4.7
18,Cc1cccc(N2CCN(C(C)(C)C(=O)NCC3CCCC3)CC2)c1C [Compound 15],6.9
19,CC(C)CNC(=O)C(C)(C)N1CCc2ccccc2C1 [Compound 116],3.8
20,"CC(C)CNC(=O)C(C)(C)N1CCN(c2cccc(F)c2CO)CC1 [Compound 51, 2-(4-(3-fluoro-2-(hydroxymethyl)phenyl)piperazin-1-yl)-N-isobutyl-2-methylpropanamide]",> 10

row,Compound,EC50 [µM]
1,Cc1cccc(N2CCN(C(C)(C)C(=O)NC(C)(C)CO)CC2)c1C [Compound 24],> 10
2,Cc1cccc(N2CCN(C(C)(C)C(=O)NCC3CC3)CC2)c1C [Compound 14],5
3,COCc1cccc(C2CCN(C(C)(C)C(=O)NCC(C)C)CC2)c1F [Compound 95],0.5
4,Cc1cccc(N2CCN(C(C)(C)C(=O)NCCC(C)C)CC2)c1C [Compound 26],8
5,CC(C)CNC(=O)C(C)(C)N1CCN(c2cccc(F)c2)CC1 [Compound 44],> 10
6,COCc1cccc(N2CCN(C(C)(C)C(=O)NCC(C)C)CC2)c1 [Compound 45],> 10
7,CC(C)CNC(=O)C(C)(C)N1CCN(c2ccccc2CO)CC1 [Compound 6],> 10
8,COCc1ccc(C2=CCN(C(C)(C)C(=O)NCC(C)C)CC2)c(F)c1 [Compound 69],> 10
9,Cc1cccc(N2CCN(C(C)(C)C(=O)NCC(C)C)CC2)c1F [Compound 36],2.4
10,Cc1ccccc1N1CCN(C(C)(C)C(=O)NCC(C)C)CC1 [Compound 46],4.3
11,Cc1ccncc1C1CCN(C(C)(C)C(=O)NCC(C)C)CC1 [Compound 107],> 10
12,"COCc1cccc(N2CCN(C(C)(C)C(=O)NCC(C)C)CC2)c1F [Compound 4, 2-(4-(2-fluoro-3-(methoxymethyl)phenyl)piperazin-1-yl)-N-isobutyl-2-methylpropanamide]",2.1
13,Cc1cccc(N2CCN(C(C)C(=O)NC3CC3)CC2)c1C (stereo not drawn) [Compound 32],> 10
14,CC(C)CNC(=O)C(C)(C)N1CCC2(CC1)OCc1ccccc12 [Compound 121],5.6
15,"COCc1cccc(C2=CCN(C(COC)C(=O)NCC(C)C)CC2)c1F (stereo not drawn) [Compound 55, 2-(4-(2-fluoro-3-(methoxymethyl)phenyl)-3,6-dihydropyridin-1(2H)-yl)-N-isobutyl-3-methoxypropanamide]",1.4
16,COCc1ccccc1C1=CCN(C(C)(C)C(=O)NCC(C)C)CC1 [Compound 64],> 10
17,COCc1cccc(C2=CCN(C(C)(C)C(=O)NCC(C)C)CC2)c1 [Compound 63],> 10
18,COCc1cccc(C2CCN(C(C)(C)C(=O)NCC(C)C)CC2)c1 [Compound 111],3.1
19,CC(C)CNC(=O)C(C)(C)N1CCN(c2cnccn2)CC1 [Compound 54],> 10
